Active and inactive are the calls of the source. The calls are words filed in the database; no cut-off is given here.
Experiments:
Staphylococcus aureus = experiment: Antibacterial activity against Staphylococcus aureus ATCC 25923 at 20 g/L by disc diffusion method; type: functional; details: for zone of inhibition at 20000 µg/mL: read-out: IZ
Escherichia coli = experiment: Antibacterial activity against Escherichia coli ATCC 25922 by disc diffusion method; type: functional, organism-based
[1] = target: T1, Cell division protein FtsZ (Pseudomonas aeruginosa (strain ATCC 15692 / PAO1 / 1C / PRS 101 / LMG12228), UniProt P47204); experiment: Inhibition of Pseudomonas aeruginosa FtsZ GTPase activity by spectrophotometric assay
T1 sequence (P47204 whole entry): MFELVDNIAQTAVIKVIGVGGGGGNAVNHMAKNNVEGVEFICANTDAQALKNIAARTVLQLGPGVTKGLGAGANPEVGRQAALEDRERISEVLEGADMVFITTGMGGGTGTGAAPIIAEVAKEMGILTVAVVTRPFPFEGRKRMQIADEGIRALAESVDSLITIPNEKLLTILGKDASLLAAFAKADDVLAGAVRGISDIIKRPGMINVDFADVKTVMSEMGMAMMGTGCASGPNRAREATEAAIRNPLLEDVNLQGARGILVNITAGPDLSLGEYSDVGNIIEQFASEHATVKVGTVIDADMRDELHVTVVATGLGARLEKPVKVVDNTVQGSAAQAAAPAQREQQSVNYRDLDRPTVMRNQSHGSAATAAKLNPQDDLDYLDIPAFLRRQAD

IC50 [1] [µM] | SMILES | Activity (Staphylococcus aureus) | Activity (Escherichia coli) | zone of inhibition at 20000 µg/mL (Staphylococcus aureus) [mm]
1700 | C=CCNC(=O)[C@H](Cn1cnc2c(Cl)nc(N)nc21)NS(=O)(=O)c1ccc(C)cc1 | inactive | inactive | –
1800 | C=CCNC(=O)[C@H](Cn1cnc2c(Cl)nc(N)nc21)NC(=O)N[C@H](C)c1ccccc1 | inactive | inactive | –
600 | C=CCNC(=O)[C@H](Cn1cnc2c(Cl)nc(N)nc21)NS(C)(=O)=O | – | inactive | 28
700 | CCCNC(=O)[C@H](Cn1cnc2c(Cl)nc(N)nc21)NS(C)(=O)=O | – | inactive | 15

Continued, compound first:

SMILES | IC50 [1] [µM] | Activity (Staphylococcus aureus) | Activity (Escherichia coli) | zone of inhibition at 20000 µg/mL (Staphylococcus aureus) [mm]
Nc1nc(Cl)c2ncn(C[C@H](NS(=O)(=O)c3ccccc3)C(=O)O)c2n1 | 1200 | inactive | inactive | –
Nc1nc(Cl)c2ncn(C[C@H](NC(=O)Nc3ccccc3)C(=O)O)c2n1 | 450 | – | inactive | 10
NC[C@H]1O[C@H](O[C@H]2[C@H](O)[C@@H](O[C@H]3O[C@H](CO)[C@@H](O)[C@H](N)[C@H]3O)[C@H](N)C[C@@H]2N)[C@H](O)[C@@H](O)[C@@H]1O | – | – | inactive | –
CCCNC(=O)[C@H](Cn1cnc2c(Cl)nc(N)nc21)NC(=O)N[C@H](C)c1ccccc1 | 1800 | – | inactive | 11
CCCNC(=O)[C@H](Cn1cnc2c(Cl)nc(N)nc21)NS(=O)(=O)c1ccc(C)cc1 | 2600 | – | inactive | 11
Nc1nc(Cl)c2ncn(C[C@H](NC(=O)Cc3ccccc3)C(=O)O)c2n1 | 2000 | inactive | inactive | –
